Data taken from PMC9218946, “Identification of a Subtype-Selective Allosteric Inhibitor of GluN1/GluN3 NMDA Receptors” (Frontiers in Pharmacology, 2022).

How the values were obtained:
[1] = molecular target: T1, chimera GluN1/GluN2A^550-553 LEPF/MWPL (Homo sapiens, UniProt Q05586+Q12879, E551W/F553L/L550M); assay: Whole-cell patch-clamp on transiently transfected CHO cells, GluN2A chimera; assay type: cell-based
T1 construct: expressed in transfected cells; host or cells: CHO, transient
Method: To establish GluN1/GluN3A stable cell lines, the human GluN1-1a (GenBank: NP_015566.1) and the rat GluN3A (GenBank: NP_612555.1) genes were subcloned into the pcDNA5-FRT-To and pcDNA3.1 vectors, respectively. An EGFP tag was added to the C-terminus of GluN1 or GluN3A using a T2A linker for identification of transfected cells during transient transfection. Point mutations were introduced by site-directed mutagenesis using PrimeSTAR (Takara). The human GluN2A (GenBank: NP_000824.1) gene was subcloned into the pcDNA3.1 vector. The chimeras GluN3A^670-673 MWPL/LEPF and GluN2A^550-553 LEPF/MWPL were generated using In-Fusion HD Cloning kits (Takara). All constructs were confirmed by DNA sequencing (Beijing Genomics Institute).
The Flp-in T-Rex 293 cell lines (Invitrogen), stably expressing GluN1/GluN3A were grown in DMEM basal medium (Gibco) supplemented with 10% fetal bovine serum (FBS, Invitrogen), 15 μg/ml blasticidin S (Invitrogen), 50 μg/ml hygromycin B (Invitrogen) and 500 μg/ml G418 (Gibco). Expression in cell lines was induced with 1 μg/ml doxycycline (Invitrogen) 24–28 h prior to the experiments. Chinese hamster ovary (CHO) cells were grown in DMEM-F12 basal medium (Gibco) supplemented with 10% FBS. In the study on the action sites of WZB117, all whole-cell patch-clamp recordings were performed on CHO cells. […]

[2] = tested on: AMPA receptors; assay: Whole-cell patch-clamp, AMPA-induced currents in acutely isolated hippocampal neurons; assay type: cell-based, rat; conditions: 10 μM WZB117
Method: Hippocampal neurons were obtained from Sprague-Dawley rats (aged P7-14). Briefly, the isolated hippocampal tissues were cut into approximately […] slices along the sagittal plane and were digested with 3 mg/ml proteinase (Sigma-Aldrich) at 32°C for 8 min. Then 1 mg/ml bovine serum albumin (Sangon Biotech) and 1 mg/ml trypsin inhibitor (Sigma-Aldrich) were used to stop the digestion. A few slices of the hippocampus were gently blown into single cells with the dissecting solution, then transferred to a dish and left to rest for 20 min before experiments. The dishes were preprocessed. Essentially, the bottom of the dish was covered with discarded cell suspension the day before the experiment and was washed and dried the next day, which prevented the neurons from sticking to the bottom too tightly. The dissecting solution contained (in mM): 82 Na2SO4, 30 K2SO4, 5 MgCl2, 1 Na pyruvate, 10 HEPES, and 20 glucose. The pH was adjusted to 7.2 using NaOH ([Xie et al., 2020]).
Whole-cell patch-clamp recordings were performed at room temperature (22–25°C) using an EPC-10 amplifier and Patch Master Software (HEKA). Pipettes were pulled from borosilicate glass capillaries (World Precision Instruments), and the resistances were 3–5 MΩ when filled with the intracellular solution. […]

[3] = molecular target: GluN1/GluN3A receptors (UniProt Q05586+Q9R1M7); assay: TEVC recording in Xenopus oocytes expressing GluN1/GluN3A; assay type: cell-based; parameters: expressed in transfected cells; host or cells: Xenopus oocytes (cDNA/cRNA injection); conditions: 30 μM WZB117, Xenopus oocytes
Method: Two-electrode voltage-clamp (TEVC) recordings were performed on Xenopus oocytes expressing various subtypes of recombinant NMDARs. Each oocyte was injected with a mixture of 0.5–1.0 ng cDNAs or cRNAs encoding wild-type (WT) or mutant GluN1 (GluN1-1a or GluN1-4a) and GluN2 (2A-2D) or GluN3 (3A-3B) at a ratio of 1:1. The mutant GluN1-4a ^F484A/T518L was injected together with GluN3B to boost the currents of GluN1/GluN3B receptors, and WT GluN1-1a was used unless otherwise stated. The cRNAs of GluN1-4a, GluN3A and GluN3B were transcribed from corresponding DNAs using the mMESSAGE mMACHINE T7 Ultra kit (Life Technologies) according to the manufacturer’s instructions, and the others not specified were cDNAs. TEVC recording was performed 24–72 h post injection in extracellular solution containing (in mM): 100 NaCl, 0.3 BaCl2, 2.5 KCl, 0.01 DTPA and 5 HEPES, and the pH was adjusted to 7.3 using NaOH. All recordings were carried out at a holding potential of −60 mV.

T1 sequence (Q12879 23-1464 L550M/E551W/F553L, other chains not shown): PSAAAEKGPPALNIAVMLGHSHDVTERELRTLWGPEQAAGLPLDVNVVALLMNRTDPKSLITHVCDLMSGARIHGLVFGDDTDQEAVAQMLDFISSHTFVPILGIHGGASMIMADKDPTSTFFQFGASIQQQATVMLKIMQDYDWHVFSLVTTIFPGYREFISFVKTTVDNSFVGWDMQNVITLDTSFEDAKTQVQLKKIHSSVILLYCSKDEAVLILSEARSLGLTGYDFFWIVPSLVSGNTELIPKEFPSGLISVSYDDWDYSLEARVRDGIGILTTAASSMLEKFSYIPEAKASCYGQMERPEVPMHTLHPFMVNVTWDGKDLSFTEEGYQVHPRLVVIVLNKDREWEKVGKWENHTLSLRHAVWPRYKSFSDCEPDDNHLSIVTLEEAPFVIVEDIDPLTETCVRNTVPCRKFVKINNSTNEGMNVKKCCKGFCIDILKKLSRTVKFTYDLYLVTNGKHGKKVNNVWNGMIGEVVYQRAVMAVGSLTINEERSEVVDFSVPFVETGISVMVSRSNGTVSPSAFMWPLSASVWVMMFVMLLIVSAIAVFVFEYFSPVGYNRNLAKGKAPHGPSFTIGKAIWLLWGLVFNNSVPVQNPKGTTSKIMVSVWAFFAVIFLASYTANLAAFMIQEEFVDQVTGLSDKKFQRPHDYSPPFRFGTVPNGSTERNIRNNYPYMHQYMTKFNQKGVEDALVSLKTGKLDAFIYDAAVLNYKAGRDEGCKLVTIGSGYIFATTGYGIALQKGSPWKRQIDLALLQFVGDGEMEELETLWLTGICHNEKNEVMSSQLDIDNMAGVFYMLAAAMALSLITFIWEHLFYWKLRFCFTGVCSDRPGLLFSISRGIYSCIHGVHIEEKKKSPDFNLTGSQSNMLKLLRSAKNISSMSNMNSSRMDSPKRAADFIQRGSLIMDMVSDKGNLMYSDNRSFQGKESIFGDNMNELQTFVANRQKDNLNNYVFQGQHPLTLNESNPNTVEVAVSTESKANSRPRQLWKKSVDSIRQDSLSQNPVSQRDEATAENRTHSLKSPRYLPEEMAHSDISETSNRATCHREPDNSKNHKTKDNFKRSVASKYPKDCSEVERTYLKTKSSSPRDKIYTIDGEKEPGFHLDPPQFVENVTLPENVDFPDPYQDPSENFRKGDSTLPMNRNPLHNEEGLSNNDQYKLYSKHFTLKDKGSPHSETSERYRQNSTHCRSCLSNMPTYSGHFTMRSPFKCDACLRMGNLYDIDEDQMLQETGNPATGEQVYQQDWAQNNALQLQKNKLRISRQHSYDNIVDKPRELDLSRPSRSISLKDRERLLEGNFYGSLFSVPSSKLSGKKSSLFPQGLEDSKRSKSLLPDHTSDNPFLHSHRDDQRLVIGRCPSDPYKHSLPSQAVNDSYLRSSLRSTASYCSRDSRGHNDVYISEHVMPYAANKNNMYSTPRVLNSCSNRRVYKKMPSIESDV
Sequence of GluN1/GluN3A receptors (Q9R1M7 24-1135, other chains not shown): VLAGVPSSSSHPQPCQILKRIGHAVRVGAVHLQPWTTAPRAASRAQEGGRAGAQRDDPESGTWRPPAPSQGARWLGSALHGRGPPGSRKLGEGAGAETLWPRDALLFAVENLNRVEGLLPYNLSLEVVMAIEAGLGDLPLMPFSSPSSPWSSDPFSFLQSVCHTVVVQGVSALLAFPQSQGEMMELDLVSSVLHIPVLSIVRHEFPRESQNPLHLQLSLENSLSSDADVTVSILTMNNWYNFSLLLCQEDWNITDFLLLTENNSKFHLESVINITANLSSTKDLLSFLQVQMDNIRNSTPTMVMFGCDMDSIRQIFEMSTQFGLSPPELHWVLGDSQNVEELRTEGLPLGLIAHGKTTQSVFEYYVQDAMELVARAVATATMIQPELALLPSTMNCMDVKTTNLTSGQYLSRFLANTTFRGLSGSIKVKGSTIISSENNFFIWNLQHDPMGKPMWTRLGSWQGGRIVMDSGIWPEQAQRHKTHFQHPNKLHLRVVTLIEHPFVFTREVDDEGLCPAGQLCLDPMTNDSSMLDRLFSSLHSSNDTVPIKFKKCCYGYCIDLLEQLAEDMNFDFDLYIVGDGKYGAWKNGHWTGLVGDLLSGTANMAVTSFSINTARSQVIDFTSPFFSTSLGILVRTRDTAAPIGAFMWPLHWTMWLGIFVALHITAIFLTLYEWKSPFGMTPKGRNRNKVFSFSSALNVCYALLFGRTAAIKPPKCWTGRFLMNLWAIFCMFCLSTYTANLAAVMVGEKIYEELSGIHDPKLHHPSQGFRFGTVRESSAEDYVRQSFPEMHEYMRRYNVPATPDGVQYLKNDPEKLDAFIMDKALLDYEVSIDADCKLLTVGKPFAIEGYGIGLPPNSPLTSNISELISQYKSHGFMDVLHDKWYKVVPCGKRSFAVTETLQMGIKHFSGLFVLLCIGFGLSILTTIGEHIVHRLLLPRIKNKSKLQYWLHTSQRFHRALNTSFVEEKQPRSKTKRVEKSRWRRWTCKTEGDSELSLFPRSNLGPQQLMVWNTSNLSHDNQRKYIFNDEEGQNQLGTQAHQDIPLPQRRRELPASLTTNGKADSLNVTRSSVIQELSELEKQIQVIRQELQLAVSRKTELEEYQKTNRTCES

Question: Which results are given for `O=C(Oc1cccc(F)c1OC(=O)c1cccc(O)c1)c1cccc(O)c1` [WZB117, 3-fluoro-1,2-phenylene bis(3-hydroxybenzoate)]?
Answer: sensitivity of chimera [1]: acquired higher sensitivity; effect on AMPA-induced currents [2]: almost ineffective; inhibition of currents [3]: potently suppressed
